# Experiments:
# B-A17 = test: Planktonic growth with extract and antibiotic relative to growth without both (Example 14); format: cell-based
# Experimental: (§1) Starting from the herbal composition, the corresponding water extracts (or processed samples) was prepared according to the previously described Method B using 2.06 g of the above herbal composition with 40 mL water with 100 g/L sucrose for water extraction and including the decantation step before filtration. In an independent water extract preparation without sucrose, it has been measured that 2.06 g/40 mL of herbal composition corresponds to 14.5 g/L as deduced from the weight of the lyophilized dry herbal extract.
# (§2) In Example 14 we calculate the growth of the bacteria in presence of antibiotic and/or herbal mix relative to the growth in the absence of both antibiotic and herbal mix extract.
# B-A21 = test: as above; format: cell-based
# Experimental: as §1, §2
# [1] = M[20C]-576 0 μg/mL, antibiotic 3.91 μg/mL
# [2] = M[20C]-576 0 μg/mL, antibiotic 7.81 μg/mL
# [3] = M[20C]-576 0 μg/mL, antibiotic 15.63 μg/mL
# [4] = M[20C]-576 0 μg/mL, antibiotic 31.25 μg/mL
# [5] = M[20C]-576 0 μg/mL, antibiotic 62.50 μg/mL
# [6] = M[20C]-576 0 μg/mL, antibiotic 125 μg/mL
# [7] = M[20C]-576 0 μg/mL, antibiotic 250 μg/mL
# [8] = M[20C]-576 0 μg/mL, antibiotic 500 μg/mL
# [9] = M[20C]-576 0 μg/mL, antibiotic 1000 μg/mL
# [10] = M[20C]-576 0 μg/mL, antibiotic 2000 μg/mL
# [11] = M[20C]-576 0 μg/mL, antibiotic 4000 μg/mL
# [12] = M[20C]-576 90.6 μg/mL, antibiotic 3.91 μg/mL
# [13] = M[20C]-576 90.6 μg/mL, antibiotic 7.81 μg/mL
# [14] = M[20C]-576 90.6 μg/mL, antibiotic 15.63 μg/mL
# [15] = M[20C]-576 90.6 μg/mL, antibiotic 31.25 μg/mL
# [16] = M[20C]-576 90.6 μg/mL, antibiotic 62.50 μg/mL
# [17] = M[20C]-576 90.6 μg/mL, antibiotic 125 μg/mL
# [18] = M[20C]-576 90.6 μg/mL, antibiotic 250 μg/mL
# [19] = M[20C]-576 90.6 μg/mL, antibiotic 500 μg/mL
# [20] = M[20C]-576 90.6 μg/mL, antibiotic 1000 μg/mL
# [21] = M[20C]-576 90.6 μg/mL, antibiotic 2000 μg/mL
# [22] = M[20C]-576 90.6 μg/mL, antibiotic 4000 μg/mL
# [23] = M[20C]-576 181.3 μg/mL, antibiotic 3.91 μg/mL
# [24] = M[20C]-576 181.3 μg/mL, antibiotic 7.81 μg/mL
# [25] = M[20C]-576 181.3 μg/mL, antibiotic 15.63 μg/mL
# [26] = M[20C]-576 181.3 μg/mL, antibiotic 31.25 μg/mL
# [27] = M[20C]-576 181.3 μg/mL, antibiotic 62.50 μg/mL
# [28] = M[20C]-576 181.3 μg/mL, antibiotic 125 μg/mL
# [29] = M[20C]-576 181.3 μg/mL, antibiotic 250 μg/mL
# [30] = M[20C]-576 181.3 μg/mL, antibiotic 500 μg/mL
# [31] = M[20C]-576 181.3 μg/mL, antibiotic 1000 μg/mL
# [32] = M[20C]-576 181.3 μg/mL, antibiotic 2000 μg/mL
# [33] = M[20C]-576 181.3 μg/mL, antibiotic 4000 μg/mL
structure (smiles),measurement,setting,value
CN[C@H](CC(C)C)C(=O)N[C@H]1C(=O)N[C@@H](CC(N)=O)C(=O)N[C@H]2C(=O)N[C@H]3C(=O)N[C@H](C(=O)N[C@H](C(=O)O)c4cc(O)cc(O)c4-c4cc3ccc4O)[C@H](O)c3ccc(c(Cl)c3)Oc3cc2cc(c3O[C@@H]2O[C@H](CO)[C@@H](O)[C@H](O)[C@H]2O[C@H]2C[C@](C)(N)[C@H](O)[C@H](C)O2)Oc2ccc(cc2Cl)[C@H]1O [Vancomycin],planktonic growth relative to the growth in the absence of both extract and antibiotic,B-A17; [1],135%
same,planktonic growth relative to the growth in the absence of both extract and antibiotic,B-A17; [2],118%
same,planktonic growth relative to the growth in the absence of both extract and antibiotic,B-A17; [3],114%
same,planktonic growth relative to the growth in the absence of both extract and antibiotic,B-A17; [4],117%
same,planktonic growth relative to the growth in the absence of both extract and antibiotic,B-A17; [5],115%
same,planktonic growth relative to the growth in the absence of both extract and antibiotic,B-A17; [6],116%
same,planktonic growth relative to the growth in the absence of both extract and antibiotic,B-A17; [7],118%
same,planktonic growth relative to the growth in the absence of both extract and antibiotic,B-A17; [8],128%
same,planktonic growth relative to the growth in the absence of both extract and antibiotic,B-A17; [9],117%
same,planktonic growth relative to the growth in the absence of both extract and antibiotic,B-A17; [10],0%
same,planktonic growth relative to the growth in the absence of both extract and antibiotic,B-A17; [11],0%
same,planktonic growth relative to the growth in the absence of both extract and antibiotic,B-A17; [12],65%
same,planktonic growth relative to the growth in the absence of both extract and antibiotic,B-A17; [13],66%
same,planktonic growth relative to the growth in the absence of both extract and antibiotic,B-A17; [14],65%
same,planktonic growth relative to the growth in the absence of both extract and antibiotic,B-A17; [15],74%
same,planktonic growth relative to the growth in the absence of both extract and antibiotic,B-A17; [16],70%
same,planktonic growth relative to the growth in the absence of both extract and antibiotic,B-A17; [17],67%
same,planktonic growth relative to the growth in the absence of both extract and antibiotic,B-A17; [18],66%
same,planktonic growth relative to the growth in the absence of both extract and antibiotic,B-A17; [19],63%
same,planktonic growth relative to the growth in the absence of both extract and antibiotic,B-A17; [20],0%
same,planktonic growth relative to the growth in the absence of both extract and antibiotic,B-A17; [21],0%
same,planktonic growth relative to the growth in the absence of both extract and antibiotic,B-A17; [22],0%
same,planktonic growth relative to the growth in the absence of both extract and antibiotic,B-A17; [23],40%
same,planktonic growth relative to the growth in the absence of both extract and antibiotic,B-A17; [24],41%
same,planktonic growth relative to the growth in the absence of both extract and antibiotic,B-A17; [25],53%
same,planktonic growth relative to the growth in the absence of both extract and antibiotic,B-A17; [26],55%
same,planktonic growth relative to the growth in the absence of both extract and antibiotic,B-A17; [27],55%
same,planktonic growth relative to the growth in the absence of both extract and antibiotic,B-A17; [28],54%
same,planktonic growth relative to the growth in the absence of both extract and antibiotic,B-A17; [29],46%
same,planktonic growth relative to the growth in the absence of both extract and antibiotic,B-A17; [30],47%
same,planktonic growth relative to the growth in the absence of both extract and antibiotic,B-A17; [31],−3%
same,planktonic growth relative to the growth in the absence of both extract and antibiotic,B-A17; [32],−3%
same,planktonic growth relative to the growth in the absence of both extract and antibiotic,B-A17; [33],−2%
same,planktonic growth relative to the growth in the absence of both extract and antibiotic,B-A21; [1],118%
same,planktonic growth relative to the growth in the absence of both extract and antibiotic,B-A21; [2],117%
same,planktonic growth relative to the growth in the absence of both extract and antibiotic,B-A21; [3],113%
same,planktonic growth relative to the growth in the absence of both extract and antibiotic,B-A21; [4],117%
same,planktonic growth relative to the growth in the absence of both extract and antibiotic,B-A21; [5],110%
same,planktonic growth relative to the growth in the absence of both extract and antibiotic,B-A21; [6],102%
same,planktonic growth relative to the growth in the absence of both extract and antibiotic,B-A21; [7],102%
same,planktonic growth relative to the growth in the absence of both extract and antibiotic,B-A21; [8],102%
same,planktonic growth relative to the growth in the absence of both extract and antibiotic,B-A21; [9],0%
same,planktonic growth relative to the growth in the absence of both extract and antibiotic,B-A21; [10],0%
same,planktonic growth relative to the growth in the absence of both extract and antibiotic,B-A21; [11],0%
same,planktonic growth relative to the growth in the absence of both extract and antibiotic,B-A21; [12],102%
same,planktonic growth relative to the growth in the absence of both extract and antibiotic,B-A21; [13],82%
same,planktonic growth relative to the growth in the absence of both extract and antibiotic,B-A21; [14],88%
same,planktonic growth relative to the growth in the absence of both extract and antibiotic,B-A21; [15],77%
same,planktonic growth relative to the growth in the absence of both extract and antibiotic,B-A21; [16],76%
same,planktonic growth relative to the growth in the absence of both extract and antibiotic,B-A21; [17],77%
same,planktonic growth relative to the growth in the absence of both extract and antibiotic,B-A21; [18],74%
same,planktonic growth relative to the growth in the absence of both extract and antibiotic,B-A21; [19],67%
same,planktonic growth relative to the growth in the absence of both extract and antibiotic,B-A21; [20],0%
same,planktonic growth relative to the growth in the absence of both extract and antibiotic,B-A21; [21],0%
same,planktonic growth relative to the growth in the absence of both extract and antibiotic,B-A21; [22],0%
same,planktonic growth relative to the growth in the absence of both extract and antibiotic,B-A21; [23],48%
same,planktonic growth relative to the growth in the absence of both extract and antibiotic,B-A21; [24],63%
same,planktonic growth relative to the growth in the absence of both extract and antibiotic,B-A21; [25],57%
same,planktonic growth relative to the growth in the absence of both extract and antibiotic,B-A21; [26],60%
same,planktonic growth relative to the growth in the absence of both extract and antibiotic,B-A21; [27],57%
same,planktonic growth relative to the growth in the absence of both extract and antibiotic,B-A21; [28],41%
same,planktonic growth relative to the growth in the absence of both extract and antibiotic,B-A21; [29],57%
same,planktonic growth relative to the growth in the absence of both extract and antibiotic,B-A21; [30],32%
same,planktonic growth relative to the growth in the absence of both extract and antibiotic,B-A21; [31],−2%
same,planktonic growth relative to the growth in the absence of both extract and antibiotic,B-A21; [32],−3%
same,planktonic growth relative to the growth in the absence of both extract and antibiotic,B-A21; [33],0%
